GI50 and TGI data for eleven compounds are collected here from PubChem BioAssay (NCI).

The structures appear in SMILES notation.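 Grown in 96-well plates, cells were treated for 48 hours with each compound at five concentrations. Insufficient inhibition: endpoint recorded as highest concentration tested. At the GI50, growth is halved. At the TGI there is no net growth.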 Bounds are passed on as bounds.

Test systems include NCI-H23 lung; U251 CNS; NCI/ADR-RES ovarian; SK-MEL-2 melanoma; CAKI-1 renal; SN12C renal; SK-MEL-5 melanoma; OVCAR-3 ovarian; COLO 205 colon; SNB-75 CNS.
What all share (assay): NCI tumour cell line growth inhibition, 48 h

In the case of `N#Cc1cc(S(=O)(=O)Nc2nc3cc(Cl)ccc3o2)c(SCc2ccccc2)cc1Cl`, the GI50 with NCI-H23 lung is 15.6 µM; in the assay on U251 CNS, 13.4 µM; in the assay with NCI/ADR-RES ovarian it was 13.8 µM; in the assay on SK-MEL-2 melanoma it was 12.4 µM; in the assay on CAKI-1 renal it was 18.5 µM; with SN12C renal, 15.4 µM. Further, the GI50 is 15.1 µM in the assay on SK-MEL-5 melanoma, 13.5 µM in the assay with OVCAR-3 ovarian and 13 µM in the assay with COLO 205 colon. For the same compound, the TGI amounted to 28.9 µM with NCI-H23 lung; 26.2 µM in the assay on U251 CNS; 26.7 µM in the assay with NCI/ADR-RES ovarian; 24.8 µM in the assay with SK-MEL-2 melanoma; 35.1 µM with CAKI-1 renal; 29.1 µM with SN12C renal. For the same compound, the TGI is 28.3 µM in the assay on SK-MEL-5 melanoma, 26.4 µM in the assay with OVCAR-3 ovarian and 25.7 µM in the assay on COLO 205 colon.

Regarding `COc1cc2cc(Oc3cccc(NC(=O)Nc4cc(C(F)(F)F)cc(C(F)(F)F)c4)c3)c(C)nc2cc1OC`, the GI50 in the assay with NCI-H23 lung was 0.639 µM; in the assay with U251 CNS, 1.08 µM; in the assay with SK-MEL-2 melanoma, 1.82 µM; with CAKI-1 renal it was 1.41 µM; in the assay with SN12C renal it was 0.591 µM; with SK-MEL-5 melanoma, 1.62 µM. Moreover, the values for the GI50 with OVCAR-3 ovarian, in the assay with COLO 205 colon and with SNB-75 CNS were 0.488 µM, 1.79 µM and 1.73 µM, respectively. The TGI worked out at 3.55 µM in the assay with NCI-H23 lung; 2.47 µM in the assay on U251 CNS; 4.24 µM in the assay with SK-MEL-2 melanoma; 5.1 µM in the assay with CAKI-1 renal; 2.09 µM with SN12C renal; 3.28 µM in the assay with SK-MEL-5 melanoma. In addition, the TGI is 1.7 µM in the assay with OVCAR-3 ovarian, 3.58 µM in the assay with COLO 205 colon and 5.05 µM in the assay on SNB-75 CNS.

With `CN(C)c1ccc(C(O)C2=CC(=O)c3ccccc3C2=O)cc1` (configuration not stated), the GI50 in the assay with NCI-H23 lung is 27.2 µM; in the assay with U251 CNS it was 1.74 µM; in the assay with NCI/ADR-RES ovarian, > 100 µM; in the assay with SK-MEL-2 melanoma it was 2.88 µM; with CAKI-1 renal it was 7.87 µM; in the assay on SN12C renal, 1.56 µM. The GI50 with OVCAR-3 ovarian was 2.75 µM. The TGI was 97.5 µM in the assay on NCI-H23 lung; > 100 µM in the assay on U251 CNS; > 100 µM in the assay on NCI/ADR-RES ovarian; 11.7 µM in the assay with SK-MEL-2 melanoma; 32.1 µM with CAKI-1 renal; 4.54 µM with SN12C renal.

For the compound `Cc1ccc(OC(=O)N2C/C(=C\c3ccccc3)C(=O)/C(=C/c3ccccc3)C2)cc1`, the TGI was 87.9 µM in the assay with NCI-H23 lung; 38.6 µM with U251 CNS; > 100 µM with SK-MEL-2 melanoma; > 100 µM with CAKI-1 renal; 58.3 µM with SN12C renal; > 57.3 µM in the assay on SK-MEL-5 melanoma. The results for the TGI with OVCAR-3 ovarian, in the assay on COLO 205 colon and in the assay with SNB-75 CNS were 37.4 µM, > 100 µM and 55.4 µM, respectively.

For the compound `CCCCCC[C@H]1C(=O)O[C@H](C)[C@H](NC(=O)c2cccc(NC=O)c2OC)C(=O)O[C@@H](C)[C@@H]1OC(=O)CCC` (tested in a mixture with another compound), the GI50 in the assay on NCI-H23 lung was 9.53 µM; in the assay on U251 CNS it was 8.2 µM; in the assay with NCI/ADR-RES ovarian, 8.63 µM; in the assay with SK-MEL-2 melanoma, 18.1 µM; in the assay with CAKI-1 renal it was 9.71 µM; in the assay on SN12C renal it was 16.2 µM. In addition, the GI50 with SK-MEL-5 melanoma is 3.94 µM; in the assay on OVCAR-3 ovarian it was 11.1 µM; in the assay with COLO 205 colon, 12.6 µM. Also, the TGI with NCI-H23 lung is 49.2 µM; in the assay with U251 CNS, 21.5 µM; with NCI/ADR-RES ovarian, 34.2 µM; in the assay on SK-MEL-2 melanoma, 60.5 µM; in the assay on CAKI-1 renal, 24.4 µM; with SN12C renal it was 37.1 µM. In addition, the TGI came out at 14.5 µM with SK-MEL-5 melanoma, 24.9 µM with OVCAR-3 ovarian and 26.7 µM in the assay on COLO 205 colon.

With `O=c1oc2c3ccc4ccccc4c3n(CCN3CCCCC3)c2c2ccccc12`, the TGI in the assay on NCI-H23 lung was > 69.5 µM; in the assay on U251 CNS it was 65 µM; in the assay with SK-MEL-2 melanoma, 65.6 µM; in the assay on CAKI-1 renal, > 100 µM; in the assay on SN12C renal it was > 100 µM; in the assay with SK-MEL-5 melanoma, > 100 µM. Further, the TGI is 54.1 µM in the assay with OVCAR-3 ovarian, > 100 µM in the assay with COLO 205 colon and 19.6 µM in the assay on SNB-75 CNS.

Regarding `COc1cccc(/C=N\NC(=O)C(C)SC(C)C(=O)N/N=C/c2cccc(OC)c2)c1` (configuration not stated), the TGI in the assay on NCI-H23 lung is 73.2 µM; in the assay with U251 CNS, 35.9 µM; in the assay on SK-MEL-2 melanoma, > 62.6 µM; in the assay with CAKI-1 renal, > 80.8 µM; in the assay on SN12C renal it was 42.8 µM; with SK-MEL-5 melanoma, > 100 µM. Further, the TGI in the assay on OVCAR-3 ovarian was 39.3 µM; with COLO 205 colon, > 63.9 µM; in the assay on SNB-75 CNS it was 33.2 µM.

Regarding `Cc1ccc(S(=O)C(C)C(Cl)c2ccccc2)cc1` (configuration not stated), the TGI in the assay with NCI-H23 lung, in the assay on U251 CNS, with SK-MEL-2 melanoma, with CAKI-1 renal, with SN12C renal and with SK-MEL-5 melanoma was > 100 µM throughout. For the same compound, the TGI in the assay on OVCAR-3 ovarian, in the assay on COLO 205 colon and in the assay on SNB-75 CNS was > 100 µM each time.

Consider `COc1cc(N(C)C)c(OC)cc1C=C1C=CC=C1`, for which the TGI in the assay with NCI-H23 lung, with U251 CNS, in the assay on NCI/ADR-RES ovarian, in the assay on SK-MEL-2 melanoma, in the assay with SN12C renal and in the assay with SK-MEL-5 melanoma was > 100 µM in each case. Moreover, the TGI in the assay with OVCAR-3 ovarian is > 100 µM.

Take `O=C(/C=C/c1ccccc1O)c1ccccc1Cl`: the TGI with NCI-H23 lung, in the assay with U251 CNS, in the assay on SK-MEL-2 melanoma, with CAKI-1 renal, with SN12C renal and in the assay on SK-MEL-5 melanoma was > 100 µM each time. Further, the TGI is > 100 µM with OVCAR-3 ovarian, > 100 µM in the assay on COLO 205 colon and 68.8 µM with SNB-75 CNS.

In the case of `C#C[C@]1(O)CC[C@H]2[C@@H]3CC=C4c5nc(N)sc5CC[C@]4(C)[C@H]3CC[C@@]21C`, the GI50 was 4.38 µM in the assay with NCI-H23 lung; 2.47 µM in the assay on U251 CNS; 3.19 µM with NCI/ADR-RES ovarian; 2.72 µM in the assay on SK-MEL-2 melanoma; 3.08 µM in the assay with CAKI-1 renal; 10.1 µM in the assay on SN12C renal. For the same compound, the GI50 in the assay with SK-MEL-5 melanoma is 1.91 µM; in the assay with OVCAR-3 ovarian, 3.1 µM; in the assay with COLO 205 colon it was 3.66 µM. For the same compound, the TGI in the assay on NCI-H23 lung came out at 24.3 µM; with U251 CNS, 16.4 µM; in the assay with NCI/ADR-RES ovarian, 16 µM; in the assay with SK-MEL-2 melanoma it was 7.57 µM; with CAKI-1 renal, 14.8 µM; in the assay on SN12C renal, 30.6 µM. The TGI with SK-MEL-5 melanoma turned out to be 3.63 µM; in the assay with OVCAR-3 ovarian it was 9.84 µM; in the assay with COLO 205 colon it was 15.8 µM.
